Source: PubChem BioAssay (NCI)
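Each compound was tested at five concentrations against cells in 96-well plates for 48 hours. GI50: concentration for 50% inhibition of growth. TGI marks complete inhibition of growth.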

Tests used:
Assay in all cases: NCI anticancer screen, dose series, 48 h
[1] = tested on: K-562 leukemia
[2] = tested on: PC-3 prostate
[3] = tested on: NCI-H522 lung
[4] = tested on: T-47D breast
[5] = tested on: SNB-75 CNS
[6] = tested on: COLO 205 colon
[7] = tested on: HCT-15 colon
[8] = tested on: A498 renal
[9] = tested on: MDA-MB-231 breast
[10] = tested on: SK-MEL-2 melanoma

| Structure (SMILES) | GI50 [1] | TGI [1] | GI50 [2] | TGI [2] | GI50 [3] | TGI [3] | GI50 [4] | TGI [4] | GI50 [5] | TGI [5] | GI50 [6] | TGI [6] | GI50 [7] | TGI [7] | GI50 [8] | TGI [8] | GI50 [9] | TGI [9] | GI50 [10] | TGI [10] |
| --- | --- | --- | --- | --- | --- | --- | --- | --- | --- | --- | --- | --- | --- | --- | --- | --- | --- | --- | --- | --- |
| CCCCCCCCCCCC1=NC(C)(C)CN1C(C)(C)CO | 1.84 µM | 4.38 µM | 3.11 µM | 12.8 µM | 1.84 µM | 4.02 µM | 2.05 µM | 5.31 µM | 2.3 µM | 7.12 µM | 1.59 µM | 3 µM | 2.15 µM | 4.74 µM | 5.76 µM | 20.8 µM | 2.1 µM | 4.48 µM | 2.12 µM | 3.88 µM |
| C[C@H]1[C@H](C)N1CC(O)Cn1ccnc1[N+](=O)[O-] (stereo partly drawn) | – | > 100 µM | – | > 100 µM | – | > 100 µM | – | > 100 µM | – | > 100 µM | – | > 100 µM | – | > 100 µM | – | > 100 µM | – | > 100 µM | – | > 100 µM |
| CN1C(=O)c2ccc3ccccc3c2C1=O | – | > 100 µM | – | > 100 µM | – | > 100 µM | – | > 100 µM | – | > 100 µM | – | > 100 µM | – | > 100 µM | – | > 100 µM | – | > 100 µM | – | > 100 µM |
| COC(=O)c1c2c(c(C)[n+]([O-])c1C)C(=O)C=C(NCc1ccccc1)C2=O | 0.418 µM | 3.05 µM | 0.379 µM | 7.34 µM | 1.33 µM | 3.25 µM | 0.316 µM | 1.59 µM | 1.82 µM | 3.22 µM | 0.274 µM | 0.776 µM | 0.426 µM | 1.8 µM | 1.57 µM | 2.96 µM | 0.326 µM | 2.68 µM | 1.25 µM | 2.82 µM |
| CN(C)c1ccc(Nc2c3ccccc3nc3ccccc23)cc1 | 0.847 µM | 7.83 µM | 1.34 µM | 5.41 µM | 0.685 µM | 2.52 µM | 1.56 µM | 4.01 µM | 0.99 µM | 4.09 µM | 0.82 µM | 2.16 µM | 0.959 µM | 3.49 µM | 0.353 µM | 4.45 µM | 1.3 µM | 3.32 µM | 0.821 µM | 2.83 µM |
| CCC(=O)N1C/C(=C/c2ccc(Cl)cc2)C(=O)/C(=C/c2ccc(Cl)cc2)C1 | 0.317 µM | – | 0.464 µM | 2.4 µM | 0.973 µM | 2.4 µM | 1.38 µM | 3.27 µM | 1.37 µM | 3.1 µM | 0.757 µM | 1.95 µM | 0.386 µM | 1.25 µM | 1.5 µM | 3.04 µM | 1.05 µM | 2.9 µM | 2.01 µM | 3.94 µM |
| O=[N+]([O-])c1cccc(/C=N/NC2=CS(=O)(=O)C=C2)c1 | – | > 100 µM | – | > 100 µM | – | > 100 µM | – | > 100 µM | – | > 100 µM | – | > 100 µM | – | > 100 µM | – | > 100 µM | – | > 100 µM | – | > 100 µM |
| CCOC(=O)N1C/C(=C\c2ccccc2)C(=O)/C(=C/c2ccccc2)C1 | – | > 38.3 µM | – | 5.16 µM | – | 7.44 µM | – | > 31.6 µM | – | 22.4 µM | – | 11.6 µM | – | 5.74 µM | – | 34.2 µM | – | 5.3 µM | – | 28.2 µM |
| COc1ccc2c(c1)nc(NNC(=O)c1cnccn1)c1cccn12 | 0.393 µM | > 100 µM | 0.285 µM | 4.85 µM | 0.393 µM | 5.37 µM | 0.348 µM | 3.99 µM | 0.458 µM | 3.06 µM | 0.264 µM | 3.01 µM | 0.0631 µM | 43 µM | 1.31 µM | 2.93 µM | 0.682 µM | 3.39 µM | 0.697 µM | 3.88 µM |
| OCCCCC#Cc1ccccc1C#Cc1ccc(O)cc1 | 20.4 µM | 45 µM | 17.2 µM | 35.2 µM | 13.8 µM | 28.8 µM | 19.7 µM | 45.2 µM | 13.6 µM | 29.3 µM | 21.6 µM | 45.9 µM | 14.1 µM | 28 µM | 20.7 µM | 38.5 µM | 7.55 µM | 21.4 µM | 20.8 µM | 43 µM |
| COC(C)(C)[C@@H](O)[C@H](O)C[C@H](C)C1=C2CC[C@@H]3[C@@]4(C)CC[C@@H](OC(C)=O)C(C)(C)[C@@H]4C[C@@H](OC4OC(COC(C)=O)C(O)C(O)C4O)[C@@]3(C)[C@]2(C)CC1 (stereo partly drawn) | 6.06 µM | 22.3 µM | 5.68 µM | 18.5 µM | 12.2 µM | 25.2 µM | 12.6 µM | 25.6 µM | – | 21.2 µM | 10.6 µM | 22.8 µM | 11 µM | 23.8 µM | 14.2 µM | 27.6 µM | 11.6 µM | 23.8 µM | 13.2 µM | 26 µM |
| Cc1ccc2nc3ccccc3c(NCc3ccc(Cl)cc3)c2c1 | 1.51 µM | 5.28 µM | 2.19 µM | 8.9 µM | 5.85 µM | 14.6 µM | 7.03 µM | 19.5 µM | 6.77 µM | 13.3 µM | 1.27 µM | 3.39 µM | 2.52 µM | 8.73 µM | 5.61 µM | 11.9 µM | 5.16 µM | 12.2 µM | 8.57 µM | 17.3 µM |
| Cc1ccc(S(=O)(=O)Oc2ccc3c4c(c(=O)oc3c2)CCCCCC4)cc1 | 3.88 µM | > 100 µM | 5.97 µM | > 100 µM | > 100 µM | > 100 µM | 5.05 µM | > 100 µM | > 100 µM | > 100 µM | 2.92 µM | > 100 µM | 3.16 µM | > 100 µM | 4.43 µM | > 100 µM | > 100 µM | > 100 µM | 75 µM | > 100 µM |
| C=C1C(=O)O[C@H]2[C@H]1CC/C(COC(=O)CCCCCC(=O)OC/C1=C/CC[C@@]3(C)O[C@H]3[C@H]3OC(=O)C(=C)[C@@H]3CC1)=C\CC[C@@]1(C)O[C@@H]21 | 1.18 µM | 10.2 µM | 2.24 µM | 5.96 µM | 1.72 µM | 3.44 µM | 1.96 µM | 5.74 µM | 3.05 µM | 29.6 µM | 1.46 µM | 3.32 µM | 1.68 µM | 3.81 µM | 11.4 µM | 27.4 µM | 1.68 µM | 3.62 µM | 5.17 µM | 21.2 µM |
